Assay results reported in patent US6562801B1, “PpGpp and pppGpp as immunomodulatory agents” (Board of Regents, The University of Texas System, priority 1999, dated 2003).
Entries after “also recorded” stand apart in the source; their conditions may differ.

What was measured:
[1] = tested on: humoral response to HBsAg (anti-HBsAg antibodies); assay: Humoral response (anti-HBsAg antibody titers by ELISA) in mice immunized i.m. with HBsAg plus adjuvant; type: in vivo, BALB/c mice; conditions: for mean anti-HBsAg titer: 3 weeks post-immunization, approx. 18 nmol compound per mouse with alum and 1 μg HBsAg (FIG. 4); for speed of immune response vs alum control: titers at 2 to 3 weeks, p<0.05, approx. 18 nmol per mouse with alum
Method: Immunization with HBsAg was conducted on groups of (n=4 or 5) 6- to 8-week old female BALB/c mice (Harlan) as described in, Davis et al., 1996. Each solution contained 1 μg recombinant HBsAg protein (ayw subtype; Genzyme) in a total volume of 50 μl, and 25 μl of each antigen solution was injected into both the left and right tibialis anterior muscles. […] This is the same ratio as used in the commercial hepatitis B vaccines (Davis et al., 1996). […] (Oligonucleotide 1826, previously described in Davis et al., 1996, contains a nuclease-resistant phosphorothioate modified backbone).
The ELISA method was used to evaluate the immune response to a combination of ppGpp and pppGpp and the immune response to ppGpp alone. Kinetics and magnitude of the immune response generated by the nucleotide ppGpp versus an oligonucleotide containing CpG were also determined from the data generated by ELISA. For the isotyping ELISAs the Immunopure Monoclonal Antibody Isotyping Kit I (HRP/ABTS) from Pierce was modified and used.
For measuring humoral response to HBsAg blood was recovered from mice by tail vein bleeds at various times after immunization. The blood was clotted at room temperature for >2 hours, and centrifuged twice at 13 krpm for 10 minutes to separate the serum. Antibodies specific to HBsAg were detected by ELISA, and were quantified relative to a monoclonal antibody against HBsAg (IgG1, 10^10 affinity constant, ad+ay; Genzyme). A solid phase of recombinant HBsAg protein (100 μl of 1 μg/ml per well, overnight at 4° C.) was used to capture anti-HBsAg in the plasma (overnight at 4° C.), which was then detected with HRP-conjugated rabbit anti-mouse IgG+IgM. (1:10,000 in PBS/0.1% Tween/2% BSA; 100 μl per well; Pierce), followed by the sequential addition of 3 3′,5,5′-tetramethylbenzidine solution (50 μl/well, 10 minutes at room temperature; Calbiochem) and 0.25M HCl (50 μl/well). Absorbance was measured at 450 nm within 10 minutes of adding the final reagent. Anti-HB titers are expressed as group means +/−standard error (SE) of individual animals values, which are in turn averages of triplicate assays.

[2] = Tolerability / signs of toxicity in immunized mice; type: in vivo; conditions: up to 250 μg ppGpp per mouse i.m.

Structure (SMILES) | adjuvant effect on humoral response ([1]; 10 μg (18 nmol) GTP with alum and HBsAg (FIG. 4E)) | effect upon the humoral response ([1]; 2 μg ppGpp plus alum (FIG. 3C)) | effect upon the humoral response ([1]; 50 μg ppGpp plus alum (FIG. 3E)) | effect upon the humoral response ([1]; 250 μg ppGpp plus alum (FIG. 3F vs 3B)) | mean anti-HBsAg titer [1] | anti-HBsAg titer, ppGpp group vs alum group ([1]; 4 weeks post-immunization, ppGpp 10 μg plus alum (FIG. 3B vs 3D)) | anti-HBsAg titer, ppGpp group vs alum group ([1]; 6 weeks post-immunization, ppGpp 10 μg plus alum) | maximal anti-HBsAg titer level ([1]; 10 weeks post-immunization, HBsAg plus alum, ppGpp 10 μg) | time course of humoral response, ppGpp vs unmethylated CpG oligonucleotide (oligo 1826) ([1]; ppGpp 10 μg vs oligo 10 μg, with alum (FIG. 5)) | effect of natural ppGpp vs predicted response of natural CpG oligonucleotide ([1]; predicted response, dotted line of FIG. 5) | speed of immune response vs alum control [1] | optimal dosage per mouse ([1]; titration 2, 10, 50, 250 μg ppGpp with alum and 1 μg HBsAg (FIGS. 3C-3F)) | mean ELISA titer of anti-HBsAg antibodies ([1]; two weeks after injection, HBsAg plus alum, ppGpp 10 μg, p=0.04 (FIG. 3B, 3D)) | tolerability / signs of toxicity (ruffling of fur, diarrhea) [2]
Nc1nc2c(ncn2[C@@H]2O[C@H](COP(=O)(O)OP(=O)(O)OP(=O)(O)O)[C@@H](O)[C@H]2O)c(=O)[nH]1 [GTP, reference compound] | modest at best | – | – | – | – | – | – | – | – | – | – | – | – | –
Nc1nc2c(ncn2[C@@H]2O[C@H](COP(=O)(O)OP(=O)(O)O)[C@@H](OP(=O)(O)OP(=O)(O)O)[C@H]2O)c(=O)[nH]1 [ppGpp, Guanosine 5′-diphosphate 2′(3′)-diphosphate] | – | did not have a significant effect | did not have a significant effect | appeared to suppress the alum-induced adjuvant effect | 161 ± 42 ng/mL | trend was still present | comparable titer levels | 2316 ± 1764 ng/mL | did not appear to differ | much greater effect | more rapid immune response | 10 µg | 83 ± 37 ng/mL | well tolerated; also recorded: no signs of toxicity were observed
Nc1nc2c(ncn2[C@@H]2O[C@H](COP(=O)(O)OP(=O)(O)OP(=O)(O)O)[C@@H](OP(=O)(O)OP(=O)(O)O)[C@H]2O)c(=O)[nH]1 [pppGpp, Guanosine 5′-triphosphate 2′(3′)-diphosphate] | – | – | – | – | 136 ± 33 ng/mL | – | – | – | – | – | more rapid immune response | – | – | –
